From article PMC2755957 (The Journal of Biological Chemistry, 2009) come the findings set out here.

SMILES strings stand for the structures. Where a chain is given by its changes, count along the chain named.

Experiment [1] has as its target T1, Δ^1–24-L-PGDS + T67A/S81A (Mus musculus, UniProt O09114, S81A/T67A).
T1 sequence (O09114 1-189 T67A/S81A): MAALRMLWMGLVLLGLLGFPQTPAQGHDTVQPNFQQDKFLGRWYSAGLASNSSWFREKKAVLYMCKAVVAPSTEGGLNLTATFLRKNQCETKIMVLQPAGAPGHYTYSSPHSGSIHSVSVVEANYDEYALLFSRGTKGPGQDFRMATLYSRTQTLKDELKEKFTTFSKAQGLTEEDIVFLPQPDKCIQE
Kind of experiment: biochemical.

For experiment [2], the target named is T2, mouse Δ1–24-L-PGDS (lipocalin type prostaglandin D synthase) (Mus musculus, UniProt O09114).
T2 sequence (O09114 25-189): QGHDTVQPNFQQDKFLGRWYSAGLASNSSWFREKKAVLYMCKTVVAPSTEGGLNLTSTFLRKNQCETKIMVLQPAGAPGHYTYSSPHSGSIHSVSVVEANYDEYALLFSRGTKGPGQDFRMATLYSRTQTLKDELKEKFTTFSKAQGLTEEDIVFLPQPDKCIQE
Kind of experiment: PGDS assay, [[…]-14C]PGH2 to [[…]-14C]PGD2 by TLC. The class given is biochemical.

Experiment [3] concerns the target T3, Δ^1–24-L-PGDS + S45A/T67A (Mus musculus, UniProt O09114, S45A/T67A).
T3 sequence (O09114 1-189 S45A/T67A): T1 sequence (O09114 1-189 T67A/S81A) with S45A, A81S
Kind of experiment: biochemical.

The target of experiment [4] is T4, mouse Δ1–24-L-PGDS (lipocalin type prostaglandin D synthase) (Mus musculus, UniProt O09114, S81A).
T4 sequence (O09114 25-189 S81A): T2 sequence (O09114 25-189) with S57A
Kind of experiment: surface plasmon resonance. The class given is binding. A general note: Surface plasmon resonance follows binding to a sensor surface in real time, without labels.

The target in experiment [5] is T5, mouse Δ1–24-L-PGDS (lipocalin type prostaglandin D synthase) (Mus musculus, UniProt O09114, S45A).
T5 sequence (O09114 25-189 S45A): T2 sequence (O09114 25-189) with S21A
Kind of experiment: surface plasmon resonance. The class given is binding.

For experiment [6], the target named is T6, mouse Δ1–24-L-PGDS (lipocalin type prostaglandin D synthase) (Mus musculus, UniProt O09114, H111A).
T6 sequence (O09114 25-189 H111A): T2 sequence (O09114 25-189) with H87A
Kind of experiment: surface plasmon resonance. The class given is binding.

In experiment [7] the target is T7, mouse Δ1–24-L-PGDS (lipocalin type prostaglandin D synthase) (Mus musculus, UniProt O09114, S45A/S81A/T67A).
T7 sequence (O09114 25-189 S45A/T67A/S81A): T2 sequence (O09114 25-189) with S21A, T43A, S57A
Kind of experiment: surface plasmon resonance. The class given is binding.

The target of experiment [8] is T8, Δ^1–24-C65A + H111A (Mus musculus, UniProt O09114, C65A/H111A).
T8 sequence (O09114 1-189 C65A/H111A): T1 sequence (O09114 1-189 T67A/S81A) with C65A, A67T, A81S, H111A
Kind of experiment: biochemical.

Experiment [9] has as its target T9, mouse Δ1–24-L-PGDS (lipocalin type prostaglandin D synthase) (Mus musculus, UniProt O09114, T67A).
T9 sequence (O09114 25-189 T67A): T2 sequence (O09114 25-189) with T43A
Kind of experiment: surface plasmon resonance. It counts as binding.

For experiment [10], the target named is T10, mouse Δ1–24-L-PGDS (lipocalin type prostaglandin D synthase) (Mus musculus, UniProt O09114, C65A).
T10 sequence (O09114 25-189 C65A): T2 sequence (O09114 25-189) with C41A
Kind of experiment: surface plasmon resonance. It counts as binding.

Experiment [11] concerns the target T11, mouse Δ1–24-L-PGDS (lipocalin type prostaglandin D synthase) (Mus musculus, UniProt O09114, H111A/W54A).
T11 sequence (O09114 25-189 W54A/H111A): T2 sequence (O09114 25-189) with W30A, H87A
Kind of experiment: surface plasmon resonance. It counts as binding.

As a reminder, the Kd is the concentration at which binding is half-saturated. For orientation: Ki means the dissociation constant of the complex between target and ligand, obtained from inhibition or displacement.

As to `CCCCC[C@H](O)/C=C/[C@H]1[C@@H]2CO[C@@H](C2)[C@@H]1C/C=C\CCCC(=O)O` [U-44069], the dissociation constant Kd in [1] was found to be 13.5 ± 2.3 µM; in experiment [3], 7.2 ± 1.6 µM; in experiment [4] it was 14.6 ± 2.4 µM; in experiment [5] it was 15.2 ± 2.4 µM; in experiment [6], 20.6 ± 2.3 µM; in experiment [7], 12.9 ± 2.4 µM. Moreover, the Kd in experiment [8] amounted to 38.1 ± 2.4 µM; in [9], 12.3 ± 3 µM; in [10], 20.2 ± 2.5 µM; in experiment [11], 20.6 ± 1.4 µM. This molecule also showed a Ki in experiment [2] of 30 µM.

In the case of `CCCCC[C@H](O)/C=C/[C@@H]1[C@@H](C/C=C\CCCC(=O)O)[C@H]2CO[C@@H]1C2` [U-46619], the Kd in [1] is 19.6 ± 2.3 µM; in experiment [3], 19.1 ± 2.5 µM; in experiment [4] it was 17 ± 1.7 µM; in [5], 16.2 ± 1.4 µM; in experiment [6] it was 20.3 ± 1.3 µM; in experiment [7] it was 22 ± 2 µM. For the same molecule, the Kd worked out at 37.2 ± 3.5 µM in [8], 26.9 ± 5.3 µM in experiment [9], 22.1 ± 1.5 µM in experiment [10] and 48.5 ± 4.4 µM in [11]. This molecule also gave a Ki in experiment [2] of 36 µM.
